According to patent publication EP0137212A2, “Ointment bases and ointments” (OTSUKA PHARMACEUTICAL CO., LTD., priority 1983, dated 1985):
Converted amounts (≈) assume the structure as drawn. Where two headings read alike, the source gives them in different places.

Assays:
[1] = system: carrageenin-induced paw edema; test: Inhibition of carrageenin-induced paw edema in rats; assay type: in vivo; details: 200 mg ointment (Ointment A / Ointment B) rubbed into right hind paw 1 and 2 hours before carrageenin
Method: After the ointment was applied to a rat's hind paw, carrageenin serving as a phlogogen was injected into the same hind paw, and the swelling caused by the phlogogen was measured. More specifically stated, the test was carried out as given below, using groups of 5 rats (weighing 175 g). First, the right hind paw of the rat was immersed in water, and the displacement was measured thereby giving the volume of hind paw. One and 2 hours before the injection of the phlogogen (carrageenin), 200 mg of the ointment was elaborately rubbed into the right hind paw of the rat, which was then wrapped in Saran Wrap (trademark) and covered with an elastic strip of adhesive plaster. Thereafter, 0.1 ml of a 1% solution of carrageenin was injected into the right hind paw, and the volume of the hind paw was hourly measured to determine the swelling (%) according to the following equation based on the volume thereof before the injection with the results shown in Fig. 1. [formula] wherein V0 is the volume of the right hind paw before the injection of carrageenin and V1 is the volume thereof after the injection of carrageenin.

[2] = Steroid Solubility Test; assay type: physicochemical
Method: This test was conducted to determine the maximum weight of Steroids A and B that could completely dissolve in 1 ml of various solvents at a temperature of 20°C.

solubility ([2]; organic solvent or mixture, solvent 1,3-Butanediol, 20°C, read-out: maximum weight that could completely dissolve in 1 ml of solvent) [µg/mL] | solubility ([2]; organic solvent or mixture, solvent 1,3-Dimethyl-2-imidazolidinone, 20°C, read-out: maximum weight that could completely dissolve in 1 ml of solvent) [µg/mL] | solubility ([2]; organic solvent or mixture, solvent Benzyl alcohol, 20°C, read-out: maximum weight that could completely dissolve in 1 ml of solvent) [µg/mL] | solubility ([2]; organic solvent or mixture, solvent Diethyl sebacate, 20°C, read-out: maximum weight that could completely dissolve in 1 ml of solvent) [µg/mL] | solubility ([2]; organic solvent or mixture, solvent Polyethylene glycol 400, 20°C, read-out: maximum weight that could completely dissolve in 1 ml of solvent) [µg/mL] | solubility ([2]; organic solvent or mixture, solvent Propylene glycol, 20°C, read-out: maximum weight that could completely dissolve in 1 ml of solvent) [µg/mL] | SMILES | anti-inflammatory activity (swelling of hind paw, Fig. 1, in words) [1] | solubility ([2]; 1,3-butanediol, organic solvent or mixture) [µg/mL] | solubility ([2]; 1,3-dimethyl-2-imidazolidinone, organic solvent or mixture) [µg/mL] | solubility ([2]; benzyl alcohol, organic solvent or mixture) [µg/mL] | solubility ([2]; diethyl sebacate, organic solvent or mixture) [µg/mL] | solubility ([2]; polyethylene glycol 400, organic solvent or mixture) [µg/mL] | solubility ([2]; propylene glycol, organic solvent or mixture) [µg/mL]
1950 (≈ 4.18 mM) | 357000 (≈ 765 mM) | > 25000 | 6850 (≈ 14.7 mM) | 13300 (≈ 28.5 mM) | 2700 (≈ 5.78 mM) | CCOC(=O)O[C@]1(C(=O)OCCl)CC[C@H]2[C@@H]3CCC4=CC(=O)C=C[C@]4(C)[C@H]3[C@@H](O)C[C@@]21C [Steroid A, chloromethyl 17α-ethoxycarbonyloxy-11β-hydroxyandrosta-1,4-diene-3-one-17β-carboxylate] | exhibit an anti-inflammatory activity |  |  |  |  |  | 
 |  |  |  |  |  | CCOC(=O)O[C@]1(C(=O)OCCl)[C@H](C)C[C@H]2[C@@H]3CCC4=CC(=O)C=C[C@]4(C)[C@@]3(F)[C@@H](O)C[C@@]21C [Steroid B, chloromethyl 17a-ethoxycarbonyloxy-9a-fluoro-11β-hydroxy-16α-methylandrosta-1,4-diene-3-one-17β-carboxylate] | exhibit an anti-inflammatory activity | 50 (≈ 0.1 mM) | 52100 (≈ 104 mM) | 920 (≈ 1.84 mM) | 280 (≈ 0.561 mM) | 450 (≈ 0.902 mM) | 100 (≈ 0.2 mM)
